Source: paper PMC3780409 (Methods in molecular biology (Clifton, N.J.), 2011)
Entries after “also recorded” stand apart in the source; their conditions may differ. Like-named read-outs stand apart in the source and are kept apart here.

Columns and labels:
PAR1 [1] = settings: cited from earlier work; for Outcome: sepsis, SIRS, DIC, mice
PAR4 [2] = settings: cited from earlier work
PAR4 [3] = settings: cited from earlier work; remark: listed apart in the source
PAR4 [4] = settings: cited from earlier work; remark: listed apart in the source
PAR4 [5] = settings: wire injury to the carotid artery of mice, fluorescent platelets; cited from earlier work
PAR4 [6] = settings: PAR4 agonist in mouse knee joint; cited from earlier work
[7] = test system: thromboxane, ADP, collagen, or GPIb/IX/V receptors; settings: cited from earlier work
PAR4 [8] = settings: Inflammation/paw edema, carrageenan, mice; cited from earlier work
PAR1 [9] = settings: at higher concentrations; cited from earlier work
PAR4 [10] = settings: sepsis, SIRS, DIC, mice; cited from earlier work
PAR4 [11] = settings: cited from earlier work; remark: listed apart in the source
human neutrophils = settings: cited from earlier work
PAR4 [12] = settings: mice, induced by AYPGKF plus epinephrine; cited from earlier work
CXCR1/2 = settings: sepsis, SIRS, DIC, septic mice; cited from earlier work
PAR4 [13] = settings: guinea pigs, cited from earlier work
PAR4 [14] = settings: cited from earlier work; remark: listed apart in the source
PAR4 [15] = settings: thrombin-preactivated human platelets; cited from earlier work
PAR1 [16] = settings: selectivity for PAR4; cited from earlier work
PAR1 [17] = settings: rat aortic rings, vascular tissue preparations; cited from earlier work
PAR1-MCF7/N55 = settings: cited from earlier work
PAR1 [18] = settings: cited from earlier work
SKOV3 = SKOV3 (i.p.), 10 mg/kg (s.c. 5 days per week), single agent; cited from earlier work
Akt = settings: established tumors treated for 5 days; cited from earlier work
PAR1 [19] = settings: guinea pigs, intravenous administration; cited from earlier work
MDA-MB-231 = MDA-MB-231 (s.q.), 10 mg/kg (i.p. q2d) combination with docetaxel (10 mg/kg i.p. once weekly), p < 0.01; cited from earlier work
PAR1 [20] = settings: guinea pig platelets; cited from earlier work
OVCAR4 = settings: cited from earlier work
PAR1 [21] = settings: guinea pigs, cited from earlier work
GFP/MDA-MB-231 = GFP/MDA-MB-231 (i.v.), 10 mg/kg (s.c. 5 days per week), single agent, p < 0.001; cited from earlier work
[22] = test system: PAR1-expressing breast cancer cells; settings: through Akt; cited from earlier work
[23] = test system: breast MCF-7 cells and melanoma SK-Mel2 cells; settings: inhibition of growth, cell line not specified (MCF-7 and SK-Mel2 tested); cited from earlier work
[24] = mouse, in vivo

N-pal-RSLSSSAVANRS-NH2 [Pepducin P1pal-12S]
Outcome (PAR1 [1]): Temporally modulated survival, vascular leakage, and DIC | survival and DIC, treatment at early time points (PAR1 [1]; septic mice): improved survival and prevented DIC | survival and DIC, treatment at late time points (antagonist) (PAR1 [1]; septic mice): but not late time points

N-pal-SGRRYGHALR-NH2 [Pepducin P4pal-10]
Outcome (tail bleeding time) (PAR4 [2]; mice infused with pepducin): prolonged tail-bleeding times and unstable thrombi formation; also recorded: Prolonged tail bleeding time in mice | extension of bleeding time (PAR4 [2]; mice, intravenous injection, 4 h point): approximately twofold | bleeding time (PAR4 [2]; mice, intravenous injection, 24 h time point): returned to baseline | increase in bleeding time (PAR4 [2]; mice, intravenous injection, after 5 min, maintained for 1 h): threefold to fivefold | prolongation of bleeding time (PAR4 [2]; mice, subcutaneous injection of 3 mg/kg, 4 h after injection): sixfold | PD half-life (PAR4 [2]; mice, subcutaneous injection of 3 mg/kg): approximately 14 h | Outcome (infarct size) (PAR4 [3]; ischemia/reperfusion in rats): Reduced infarct size in ischemia/reperfusion in rats | reduction of myocardium infarct size (PAR4 [3]; rats, intravenous bolus of 10 μg/kg, I/R injury model): approximately 20% | AYPGKF (PAR4 agonist)-induced aggregation (PAR4 [4]): completely blocked | human platelet aggregation to PAR4 agonists (PAR4 [4]): inhibited | Outcome (platelet accumulation) (PAR4 [5]): significant delay in accumulation; also recorded: Delayed platelet accumulation | Outcome (joint inflammation) (PAR4 [6]): block the proinflammatory and pronociceptive effects of a PAR4 agonist in the mouse knee joint and alleviate acute joint inflammation; also recorded: Reduced agonist induced joint vascular conductance and edema | effect on ADP, thromboxane, and GPIb/IX/V receptors [7]: did not affect | Outcome (PAR4 [8]): Reduced edema and granulocyte recruitment induced by carrageenan | block of PAR1 activation (PAR1 [9]): partially block | Outcome (PAR4 [10]): protected against systemic inflammation and DIC; also recorded: Reduced organ damage and inflammatory mediators, inhibited neutrophil migration | Outcome (thrombin generation) (PAR4 [11]): delayed the generation of thrombin | migration of human neutrophils to IP-10, SDF-1α, and S1P (human neutrophils): no effect | migration of human neutrophils to thrombin (human neutrophils): completely blocked | systemic thrombus formation (PAR4 [12]): protected against systemic thrombus formation

N-LCA-YSRVGRSVTD-NH2 [x1/2LCA-i1]
Outcome (CXCR1/2): CXCR1/2 pepducins reduced organ damage, inhibited neutrophil migration, improved survival, and inhibited DIC

N-pal-RLAHGYRRGS-NH2 [Rev-P4pal-10, reference compound]
Target (activity class) (PAR4 [4]; reverse-sequence control): Inactive

N-pal-ATGAPRLPST-NH2 [Pepducin P4pal-i1]
decrease of arterial occlusion (PAR4 [13]; carotid injury model, single agent): approximately 50% | Outcome (arterial occlusion) (PAR4 [13]; when combined with bivalirudin or P1pal-7): Inhibition of arterial occlusion in guinea pigs, when combined with bivalirudin or P1pal-7 | arterial thrombosis, combined with bivalirudin (PAR4 [13]): suppression of arterial thrombosis in guinea pigs to a much higher degree than bivalirudin alone | human platelet aggregation, combined with bivalirudin (PAR4 [14]): significant inhibition of human platelet aggregation | Outcome (epinephrine-induced Ca2+ flux and aggregation) (PAR4 [15]): inhibited; also recorded: Inhibition of epinephrine-induced Ca^2+ flux | effect on PAR1-induced platelet aggregation (PAR1 [16]): without affecting

N-pal-RCLSSSAVANRSKKSRALF-NH2 [Pepducin P1pal-19]
Outcome (agonist activity: Ca2+ signal, relaxation, prostaglandin E2 release) (PAR1 [17]): promote Ca^2+ signals, prostaglandin E2 release, and persistent relaxation of rat aortic rings in a concentration-dependent manner; also recorded: Promotes Ca^2+ signal, relaxation of rat aortic rings, and prostaglandin E2 release

N-pal-AVANRSKKSRALF-NH2 [Pepducin P1pal-13]
Outcome (PAR1 [1]): Temporally modulated survival, vascular leakage, and DIC | survival and DIC, treatment at late time points (agonist) (PAR1 [1]; septic mice, by inhibiting leakage of endothelial cell tight junctions): improved survival and prevented DIC

C15H31CONH-KKSRALF-NH2 [Pepducin P1pal-7]
Efficacy: tumor burden, reduction in tumor growth (PAR1-MCF7/N55; PAR1-MCF7/N55 (s.q.), 10 mg/kg (s.c. q2d), single agent, p < 0.01): 62% | angiogenesis of breast cancers (PAR1-MCF7/N55): almost completely blocked | p38 MAPK activation (PAR1 [18]; human platelets, collagen): blocked p38 MAPK activation | collagen-induced platelet aggregation (PAR1 [18]; human platelets): inhibition of collagen-induced platelet aggregation | propagation of platelet–platelet thrombi (PAR1 [18]; human whole blood, arterial flow conditions): significantly reduced | Efficacy: ascites formation (SKOV3): Ascites formation, complete inhibition of ascites | phosphorylation of Akt (Akt): significantly inhibited | collagen-induced thrombocytopenia (PAR1 [19]): protected from collagen-induced thrombocytopenia | Efficacy: tumor burden, reduction in tumor growth (MDA-MB-231): 95% | Outcome (platelet aggregation) (PAR1 [20]): Inhibition of guinea pigs platelet aggregation | Efficacy: diaphragm metastasis / peritoneal dissemination (OVCAR4; OVCAR4 (i.p.), 3.6 mg/kg (i.p. q2d) combination with docetaxel (10 mg/kg i.p. once weekly), p < 0.005): Significant reduction in diaphragm metastasis (p < 0.005) | Efficacy: inhibition in ascites formation (OVCAR4; OVCAR4 (i.p.), 10 mg/kg (i.p. q2d), single agent): 60% | ascites production in peritoneal ovarian cancer (OVCAR4; cell line not given): significantly inhibited | angiogenesis of peritoneal ovarian cancers (OVCAR4): almost completely blocked | prolongation of the occlusion time (PAR1 [21]; 0.3 mg/kg i.v., carotid injury model): approximately 50% | Outcome (arterial occlusion time) (PAR1 [21]; intravenous, carotid artery FeCl3 injury model): prolonged the mean occlusion time; also recorded: Prolonged collagen-induced arterial occlusion time in guinea pigs | Efficacy: reduction in metastasis to lung (GFP/MDA-MB-231): 88% | viability of PAR1-expressing breast cancer cells [22]: inhibited the viability

N-pal-RTLFKAHMGQKHRAMR-NH2 [x1/2pal-i3]
Outcome (CXCR1/2): CXCR1/2 pepducins reduced organ damage, inhibited neutrophil migration, improved survival, and inhibited DIC

Pal-LTYAWHTSFK [SMO-i2-12]
IC50 [23]: 0.06 µM

pal-CGRRYGHALR [[^14C]-P4pal-10C]
increase of radioactivity in urine [24]: fivefold | radioactivity in urine [24]: detected | tissues in which radioactivity appeared ([24]; iv, 1.4 mg/kg): liver, kidney, lungs, and spleen, and lesser amounts to other tissues | tissues in which radioactivity appeared ([24]; iv, 14 mg/kg): kidney, lungs, liver, and spleen with lesser radioactivity appearing in the heart, blood, muscle, and fat, but not the brain | tissues in which radioactivity appeared ([24]; sc, 1 mg/kg): liver, kidney, lungs, and blood | tissues in which radioactivity appeared ([24]; sc, 10 mg/kg): fairly even distribution of radioactivity to the kidney, liver, spleen, blood, heart, and lungs, with lesser amounts to muscle and fat, but not to brain
